From the NIST ThermoML archive (doi:10.1016/j.jct.2018.05.029)

What was measured:
[1] = molar heat capacity at saturation pressure
[2] = Molar enthalpy of transition or fusion; details: Crystal; Adiabatic calorimetry

Cc1cc2ccccc2[nH]1 [2-methylindole]
molar heat capacity [J/K/mol], [1]
Details	Crystal	Liquid
10 K, Vacuum adiabatic calorimetry	2.311	–
11.27 K, Vacuum adiabatic calorimetry	3.226	–
12.41 K, Vacuum adiabatic calorimetry	4.157	–
13.64 K, Vacuum adiabatic calorimetry	5.288	–
15.08 K, Vacuum adiabatic calorimetry	6.718	–
16.68 K, Vacuum adiabatic calorimetry	8.364	–
18.46 K, Vacuum adiabatic calorimetry	10.26	–
20 K, Vacuum adiabatic calorimetry	11.87	–
20.49 K, Vacuum adiabatic calorimetry	12.38	–
22.77 K, Vacuum adiabatic calorimetry	14.82	–
25.3 K, Vacuum adiabatic calorimetry	17.44	–
27.77 K, Vacuum adiabatic calorimetry	19.95	–
30 K, Vacuum adiabatic calorimetry	22.09	–
30.59 K, Vacuum adiabatic calorimetry	22.64	–
34.09 K, Vacuum adiabatic calorimetry	25.92	–
37.85 K, Vacuum adiabatic calorimetry	29.24	–
40 K, Vacuum adiabatic calorimetry	31.03	–
41.97 K, Vacuum adiabatic calorimetry	32.62	–
46.6 K, Vacuum adiabatic calorimetry	36.27	–
50 K, Vacuum adiabatic calorimetry	38.75	–
51.65 K, Vacuum adiabatic calorimetry	39.93	–
53.69 K, Vacuum adiabatic calorimetry	41.38	–
57.12 K, Vacuum adiabatic calorimetry	43.67	–
59.07 K, Vacuum adiabatic calorimetry	45	–
60 K, Vacuum adiabatic calorimetry	45.61	–
64.85 K, Vacuum adiabatic calorimetry	48.69	–
70 K, Vacuum adiabatic calorimetry	51.82	–
71.32 K, Vacuum adiabatic calorimetry	52.61	–
78.49 K, Vacuum adiabatic calorimetry	56.75	–
80 K, Vacuum adiabatic calorimetry	57.59	–
86.43 K, Vacuum adiabatic calorimetry	61.12	–
90 K, Vacuum adiabatic calorimetry	63.03	–
95.28 K, Vacuum adiabatic calorimetry	65.82	–
100 K, Vacuum adiabatic calorimetry	68.27	–
104.89 K, Vacuum adiabatic calorimetry	70.77	–
114.73 K, Vacuum adiabatic calorimetry	75.78	–
120 K, Vacuum adiabatic calorimetry	78.44	–
124.69 K, Vacuum adiabatic calorimetry	80.8	–
134.71 K, Vacuum adiabatic calorimetry	85.9	–
140 K, Vacuum adiabatic calorimetry	88.58	–
144.77 K, Vacuum adiabatic calorimetry	91.01	–
154.9 K, Vacuum adiabatic calorimetry	96.19	–
160 K, Vacuum adiabatic calorimetry	98.83	–
165.05 K, Vacuum adiabatic calorimetry	101.46	–
175.19 K, Vacuum adiabatic calorimetry	106.71	–
180 K, Vacuum adiabatic calorimetry	109.23	–
185.36 K, Vacuum adiabatic calorimetry	112.05	–
195.56 K, Vacuum adiabatic calorimetry	117.49	–
200 K, Vacuum adiabatic calorimetry	119.87	–
205.76 K, Vacuum adiabatic calorimetry	122.96	–
215.96 K, Vacuum adiabatic calorimetry	128.49	–
220 K, Vacuum adiabatic calorimetry	130.72	–
226.14 K, Vacuum adiabatic calorimetry	134.11	–
236.28 K, Vacuum adiabatic calorimetry	139.71	–
240 K, Vacuum adiabatic calorimetry	141.78	–
246.38 K, Vacuum adiabatic calorimetry	145.35	–
256.59 K, Vacuum adiabatic calorimetry	151.16	–
260 K, Vacuum adiabatic calorimetry	153.09	–
266.92 K, Vacuum adiabatic calorimetry	157.02	–
276.47 K, Vacuum adiabatic calorimetry	162.53	–
277.41 K, Vacuum adiabatic calorimetry	163.05	–
280 K, Vacuum adiabatic calorimetry	164.7	–
287.09 K, Vacuum adiabatic calorimetry	169.07	–
288.08 K, Vacuum adiabatic calorimetry	169.56	–
297.66 K, Vacuum adiabatic calorimetry	175.26	–
298.15 K, Vacuum adiabatic calorimetry	175.55	224.57
298.88 K, Vacuum adiabatic calorimetry	176.09	–
300 K, Vacuum adiabatic calorimetry	176.66	225.41
302.77 K, Vacuum adiabatic calorimetry	178.44	–
304.06 K, Vacuum adiabatic calorimetry	179.13	–
308.05 K, Vacuum adiabatic calorimetry	181.6	–
309.63 K, Vacuum adiabatic calorimetry	182.65	–
311.79 K, Vacuum adiabatic calorimetry	184.11	–
312.14 K, Vacuum adiabatic calorimetry	184.35	–
320 K, Vacuum adiabatic calorimetry	189.37	234.36
320.34 K, Vacuum adiabatic calorimetry	189.58	–
331.97 K, Vacuum adiabatic calorimetry	197.27	239.7
337.63 K, Vacuum adiabatic calorimetry	–	242.18
338.88 K, Vacuum adiabatic calorimetry	–	242.77
340 K, Vacuum adiabatic calorimetry	–	243.31
341.57 K, Vacuum adiabatic calorimetry	–	244.01
349.89 K, Vacuum adiabatic calorimetry	–	247.67
350.31 K, Vacuum adiabatic calorimetry	–	247.9
360 K, Vacuum adiabatic calorimetry	–	252.22
362.02 K, Vacuum adiabatic calorimetry	–	253.13
374.86 K, Vacuum adiabatic calorimetry	–	258.66
380 K, Vacuum adiabatic calorimetry	–	260.9
387.5 K, Vacuum adiabatic calorimetry	–	264.11
399.88 K, Vacuum adiabatic calorimetry	–	269.16
400 K, Vacuum adiabatic calorimetry	–	269.22
412.6 K, Vacuum adiabatic calorimetry	–	274.35
420 K, Vacuum adiabatic calorimetry	–	277.24
425.58 K, Vacuum adiabatic calorimetry	–	279.37
436.98 K, Vacuum adiabatic calorimetry	–	283.72
440 K, Vacuum adiabatic calorimetry	–	284.91
460 K, Small sample (50 mg) DSC	–	292.55
480 K, Small sample (50 mg) DSC	–	299.89
500 K, Small sample (50 mg) DSC	–	307.02
520 K, Small sample (50 mg) DSC	–	313.94
540 K, Small sample (50 mg) DSC	–	320.66
560 K, Small sample (50 mg) DSC	–	327.16
580 K, Small sample (50 mg) DSC	–	333.46
600 K, Small sample (50 mg) DSC	–	339.55
620 K, Small sample (50 mg) DSC	–	345.45
640 K, Small sample (50 mg) DSC	–	351.22
660 K, Small sample (50 mg) DSC	–	356.94
680 K, Small sample (50 mg) DSC	–	362.78
700 K, Small sample (50 mg) DSC	–	369.01

Details	Molar enthalpy of transition or fusion [kJ/mol]
[2]	14.84
